Test results as given in paper PMC4389368, “Sarmentine, a natural herbicide from Piper species with multiple herbicide mechanisms of action” (Frontiers in Plant Science, 2015).

Legend:
[1] = tested on: T1, photosystem II QB protein (D1); test: oxygen evolution in isolated thylakoid membranes; assay type: biochemical, Amaranthus retroflexus
T1 construct: gene psbA; isolated thylakoid membranes, wild-type; with photosystem II complex

[2] = molecular target: T2, enoyl-ACP reductase (ENR) (Arabidopsis thaliana, UniProt Q9SLA8); test: NADH oxidation (A340) with purified recombinant enzyme; assay type: biochemical
T2 construct: gene MOD1
T2 sequence (Q9SLA8 75-390): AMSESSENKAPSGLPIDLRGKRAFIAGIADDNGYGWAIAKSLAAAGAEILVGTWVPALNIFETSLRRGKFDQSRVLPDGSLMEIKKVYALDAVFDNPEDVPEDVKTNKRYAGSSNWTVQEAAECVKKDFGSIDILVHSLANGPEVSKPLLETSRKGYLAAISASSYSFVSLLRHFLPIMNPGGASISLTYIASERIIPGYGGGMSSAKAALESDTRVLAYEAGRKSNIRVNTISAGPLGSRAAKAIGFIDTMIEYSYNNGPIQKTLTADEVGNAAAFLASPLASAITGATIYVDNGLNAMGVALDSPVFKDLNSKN

[3] = molecular target: T3, photosystem II QB protein (D1) (Spinacia oleracea, UniProt P69560); test: […]-atrazine displacement on spinach thylakoid membranes; assay type: binding
T3 construct: gene psbA; isolated thylakoid membranes; with photosystem II complex

Structure (SMILES)	IC50 [1]	IC50 [2]	Ki [3]
CCNc1nc(Cl)nc(NC(C)C)n1 [atrazine]	600 nM	–	–
CCCCC/C=C/C=C/C(=O)N1CCCC1 [Sarmentine, 1-(1-pyrrolidinyl)-(2E,4E)-2,4-decadien-1-one]	1720 nM	18300 nM	1500 nM
